Measured values published in patent publication US10428051B2 (priority 2015, dated 2019).
Read-outs that look alike come from different tables or passages of the source.

Target: human σ1 receptor (Homo sapiens, UniProt Q99720)
Assay: biochemical
Assay type: binding
Design: μ and σ1 dual (binding to the σ1 receptor and the μ-opioid receptor expressed as Ki): key to the marks not given beside the values

Chain of human σ1 receptor (Q99720 whole entry): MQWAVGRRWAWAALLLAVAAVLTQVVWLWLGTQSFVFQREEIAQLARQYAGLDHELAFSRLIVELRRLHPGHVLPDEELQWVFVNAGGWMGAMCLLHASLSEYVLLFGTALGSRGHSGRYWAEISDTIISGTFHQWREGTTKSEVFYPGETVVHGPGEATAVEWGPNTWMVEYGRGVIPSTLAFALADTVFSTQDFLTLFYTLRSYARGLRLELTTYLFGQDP

SMILES	Ki	μ and σ1 dual (binding to the σ1 receptor and the μ-opioid receptor expressed as Ki)	also measured
CCC(=O)N(CC1(N2CCN(CCOC3CC3)CC2)CCOCC1)c1cccc(C(F)(F)F)n1 [Example 183, N-((4-(4-(2-cyclopropoxyethyl)piperazin-1-yl)tetrahydro-2H-pyran-4-yl)methyl)-N-(6-(trifluoromethyl)pyridin-2-yl)propionamide]	< 500 nM		
CCC(=O)N(CC1(N2CCN(Cc3ccccc3)CC2)CCOCC1)c1ccc(F)cn1 [Example 6, N-((4-(4-benzylpiperazin-1-yl)tetrahydro-2H-pyran-4-yl)methyl)-N-(5-fluoropyridin-2-yl)propionamide]	< 500 nM		
CCC(=O)N(CC1(N2CCN(Cc3ccccc3)CC2)CCOCC1)C(C)c1ccccc1 (stereo not shown) [Example 13, N-((4-(4-benzylpiperazin-1-yl)tetrahydro-2H-pyran-4-yl)methyl)-N-(1-phenylethyl)propionamide]	< 100 nM		
CCC(=O)N(CC1(N2CCN(CC(C)(C)F)CC2)CCOCC1)c1cccc(C(F)(F)F)n1 [Example 190, N-((4-(4-(2-fluoro-2-methylpropyl)piperazin-1-yl)tetrahydro-2H-pyran-4-yl)methyl)-N-(6-(trifluoromethyl)pyridin-2-yl)propionamide]	< 500 nM		
COCC(=O)N(CC1(N2CCN(CC(C)C)CC2)CCOCC1)c1cccc(C(F)(F)F)n1 [Example 39, N-((4-(4-isobutylpiperazin-1-yl)tetrahydro-2H-pyran-4-yl)methyl)-2-methoxy-N-(6-(trifluoromethyl)pyridin-2-yl)acetamide]		++	
CCC(=O)N(CC1(N2CCN(CCC(C)C)CC2)CCOC2(CCCC2)C1)c1cccc(C(F)(F)F)n1 (stereo not shown) [Example 173, N-((9-(4-isopentylpiperazin-1-yl)-6-oxaspiro[4.5]decan-9-yl)methyl)-N-(6-(trifluoromethyl)pyridin-2-yl)propionamide]	< 500 nM		
O=C(c1cccs1)N(CC1(N2CCN(Cc3ccccc3)CC2)CC1)c1ccccn1 [Example 47, N-((1-(4-benzylpiperazin-1-yl)cyclopropyl)methyl)-N-(pyridin-2-yl)thiophene-2-carboxamide]		++	
CCC(=O)N(CC1(N2CCN(CC(C)C)CC2)CCOCC1)c1ccccc1 [Example 135, N-((4-(4-isobutylpiperazin-1-yl)tetrahydro-2H-pyran-4-yl)methyl)-N-phenylpropionamide]	< 500 nM		
CCC(=O)N(CC1(N2CCN(C(C)CC)CC2)CCOCC1)c1cccc(C(F)(F)F)n1 (stereo not shown) [Example 139, N-((4-(4-sec-butylpiperazin-1-yl)tetrahydro-2H-pyran-4-yl)methyl)-N-(6-(trifluoromethyl)pyridin-2-yl)propionamide]		++	
CCNC(=O)N(CC(C)(C)N1CCN(Cc2ccccc2)CC1)c1ccccc1 [Example 48, 1-(2-(4-benzylpiperazin-1-yl)-2-methylpropyl)-3-ethyl-1-phenylurea]		++	
CCC(=O)N(CC1(N2CCN(CC(C)C)CC2)CCSCC1)c1cccc(C(F)(F)F)n1 [Example 204, N-((4-(4-isobutylpiperazin-1-yl)tetrahydro-2H-thiopyran-4-yl)methyl)-N-(6-(trifluoromethyl)pyridin-2-yl)propionamide]	< 500 nM		
CCOCCN1CCN(C2(CN(C(=O)CC)c3ncccc3F)CCOC(C)(C)C2)CC1 (stereo not shown) [Example 169, N-((4-(4-(2-ethoxyethyl)piperazin-1-yl)-2,2-dimethyltetrahydro-2H-pyran-4-yl)methyl)-N-(3-fluoropyridin-2-yl)propionamide]	> 500 nM		
CCOCCN1CC2CN(C3(CN(C(=O)CC)c4cccc(C(F)(F)F)n4)CCOCC3)CC2C1 (stereo not shown) [Example 200, N-((4-(5-(2-ethoxyethyl)hexahydropyrrolo[3,4-c]pyrrol-2(1H)-yl)tetrahydro-2H-pyran-4-yl)methyl)-N-(6-(trifluoromethyl)pyridin-2-yl)propionamide]			Ki (read-out: μ and σ1 dual (binding to the σ1 receptor and the μ-opioid receptor expressed as Ki)): > 500 nM
